Measured values published in patent US9206200B2, “N-linked lactam M1 receptor positive allosteric mogulators” (Merck Sharp & Dohme Corp., priority 2011, dated 2015).

Molecular target: T1, acetylcholine muscarinic M1 receptor (Homo sapiens, UniProt P11229)
T1 construct: expressed in transfected cells; host or cells: CHOnfat cells (CHO cells with an NFAT reporter) expressing hM1, kept under Geneticin selection
T1 sequence (P11229 1-460): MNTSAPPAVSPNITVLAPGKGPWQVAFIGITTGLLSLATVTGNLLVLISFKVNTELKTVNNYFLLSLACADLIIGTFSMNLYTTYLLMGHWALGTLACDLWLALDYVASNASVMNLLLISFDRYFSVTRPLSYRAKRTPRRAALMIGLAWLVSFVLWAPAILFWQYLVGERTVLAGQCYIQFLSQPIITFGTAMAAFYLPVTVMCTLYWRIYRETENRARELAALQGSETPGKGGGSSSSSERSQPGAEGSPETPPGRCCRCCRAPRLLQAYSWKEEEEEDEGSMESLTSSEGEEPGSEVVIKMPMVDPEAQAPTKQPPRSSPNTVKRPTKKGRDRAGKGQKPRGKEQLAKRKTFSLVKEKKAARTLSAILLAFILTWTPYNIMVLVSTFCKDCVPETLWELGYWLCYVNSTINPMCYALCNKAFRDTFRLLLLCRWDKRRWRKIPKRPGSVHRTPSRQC
Assay: muscarinic FLIPR assay: intracellular calcium in CHOnfat/hM1 cells, potentiation of EC20 acetylcholine
Type: cell-based
Details: Table 1; CHOnfat/hM1 cells, FLIPR, EC20 acetylcholine (3 nM final); read-out: M1 Pot.
Protocol: The assay studies the effect of one or several concentrations of test compounds on basal or acetylcholine-stimulated Ca^2+ levels using FLIPR.
Compounds are prepared and subjected to a preincubation period of […]. Thereafter, a single EC20 concentration of acetylcholine is added to each well (3 nM final). The intracellular Ca^2+ level of each sample is measured and compared to an acetylcholine control to determine any modulatory activity.
Cells: CHOnfat/hM1, hM2, hM3 or hM4 cells are plated 24 hr before the assay at a density of 18,000 cells/well (100 μL) in a 384 well plate. CHOnfat/hM1 and CHOnfat/hM3 Growth Medium: 90% DMEM (Hi Glucose); 10% HI FBS; 2 mM L-glutamine; 0.1 mM NEAA; Pen-Strep; and 1 mg/ml Geneticin, are added. For M2Gqi5CHOnfat and M4Gqi5CHOnfat cells, an additional 600 ug/ml hygromycin is added.
Equipment: 384 well plate, 120 μl, addition plate; 96-well Whatman 2 ml Uniplate Incubator, 37° C., 5% CO2; Skatron EMBLA-384 Plate Washer; Multimek Pipetting System; Genesis Freedom 200 System; Mosquito System; Temo Nanolitre Pipetting System; and FLIPR^384 Fluorometric Imaging Plate Reader System are used.
Buffers. Assay Buffer: Hanks Balanced Salt Solution, with 20 mM Hepes, 2.5 mM Probenecid (Sigma P-8761) first dissolved in 1 N NaOH, 1% Bovine Serum Albumin (Sigma A-9647). Dye Loading Buffer: Assay Buffer plus 1% Fetal Bovine Serum and Fluo-4AM/Pluronic Acid Mixture. 2 mM Fluo-4AM ester stock in DMSO (Molecular Probes F-14202) Concentration of 2 μM in buffer for a final concentration of 1 μM in Assay. 20% Pluronic Acid Solution stock, with concentration of 0.04% in Buffer, 0.02% in Assay.
65 μL of 2 mM Fluo-4AM are mixed with 130 μL of 20% Pluronic Acid. The resulting solution and 650 μL FBS is added to the assay buffer for a total volume of 65 mL. Positive Controls: 4-Br-A23187: 10 mM in DMSO; final concentration 10 μM. Acetylcholine: 10 mM in water, working stock at both 20 μM and 30 μM in assay buffer, final concentration of 10 μM. This is used to check the maximum stimulation of the CHOK1/hM1 cells. 20 μM (2×) acetylcholine is added in the preincubation part of the assay, and the 30 μM (3×) stock is added in the second part. (EC20)Acetylcholine: 10 mM in water, working stock of 9 nM (3×), and final concentration in assay is 3 nM. This is used after the preincubation with test compounds. Addition of the EC20 Acetylcholine to each well with a test compound will ascertain any modulator activity. 24 wells contain 3 nM Acetylcholine alone as a control.
Determining Activity of Putative Compounds:
Screening Plate Compounds are titrated in 96-well plates (columns 2-11), 100% DMSO, started at a concentration of 15 mM (150× stock concentration), and 3-fold serial dilutions using Genesis Freedom200 System. Four 96-well plates are combined into a 384-well plate using Mosquito Nanolitre Pipetting System by transferring 1 μl of serial diluted compounds to each well, and 1 mM acetylcholine (100× stock concentration) were added as a control. Using Temo, 49 μl assay buffer is added to each well of the 384-well plate right before assay.
In a 96-well Whatman 2 ml Uniplate, 9 nM Acetylcholine (3×) is pipetted into wells corresponding to the screening compounds, and into control wells. The 30 μM acetylcholine control (3×) is added into control wells, and the 3× agonist plate is transferred into a 384 well plate.
Cells are washed three times with 100 μL of buffer, leaving […] of buffer in each well. Using Multimek, 30 μL of Dye Loading Buffer is added into each well and incubated at 37° C., 5% CO2 for up to one hr.
After 60 min, the cells are washed three times with 100 μL of buffer, leaving 30 μL of buffer in each well. The cell plate, screening plate, and agonist addition plates are placed on the platform in the FLIPR and the door closed. A signal test to check background fluorescence and basal fluorescence signal is performed. Laser intensity is adjusted if necessary.

SMILES | EC50
O=C1c2cc(CN3CC[C@H](F)C3)c3ccccc3c2CN1C1CCCCC1O (stereo partly drawn) [Example 32, 5-{[(3S)-3-fluoropyrrolidin-1-yl]methyl}-2-(2-hydroxycyclohexyl) 1,2-dihydro-3H-benzo[e]isoindol-3-one] | 1800 nM
O=C1c2cc(CN3CCC(F)(F)C3)c3ccccc3c2CN1C1CCCCC1O (stereo not shown) [Example 33, 5-[(3,3-difluoropyrrolidin-1-yl)methyl]-2-(2-hydroxycyclohexyl)-1,2-dihydro-3H-benzo[e]isoindol-3-one] | 240 nM
O=C1c2cc(CN3CCN(CC(F)(F)F)CC3)c3ccccc3c2CN1C1CCCCC1O (stereo not shown) [Example 34, 2-(2-hydroxycyclohexyl)-5-{[4-(2,2,2-trifluoroethyl)piperazin-1-yl]methyl}-1,2-dihydro-3H-benzo[e]isoindol-3-one] | 1900 nM
CC1(O)CCN(Cc2cc3c(c4ccccc24)CN(C2CCCCC2O)C3=O)CC1 (stereo not shown) [Example 37, 2-(2-hydroxycyclohexyl)-5-[(4-hydroxy-4-methylpiperidin-1-yl)methyl]-1,2-dihydro-3H-benzo[e]isoindol-3-one] | > 1100 nM
CC1(C)CCN(Cc2cc3c(c4ccccc24)CN(C2CCCCC2O)C3=O)CC1 (stereo not shown) [Example 38, 5-[(4,4-dimethylpiperidin-1-yl)methyl]-2-(2-hydroxycyclohexyl)-1,2-dihydro-3H-benzo[e]isoindol-3-one] | 670 nM
O=C1c2cc(CN3CCC(C4CC4)CC3)c3ccccc3c2CN1C1CCCCC1O (stereo not shown) [Example 39, 5-[(4-cyclopropylpiperidin-1-yl)methyl]-2-(2-hydroxycyclohexyl)-1,2-dihydro-3H-benzo[e]isoindol-3-one] | 5300 nM
O=C1c2cc(CN3CCC4(CC3)COc3ccccc34)c3ccccc3c2CN1C1CCCCC1O (stereo not shown) [Example 40, 2-(2-hydroxycyclohexyl)-5-(1′H-spiro[1-benzofuran-3,4′-piperidin]-1′-ylmethyl)-1,2-dihydro-3H-benzo[e]isoindol-3-one] | 720 nM
O=C1c2cc(CN3CCC(c4ccccc4)CC3)c3ccccc3c2CN1C1CCCCC1O (stereo not shown) [Example 41, 2-(2-hydroxycyclohexyl)-5-[(4-phenylpiperidin-1-yl)methyl]-1,2-dihydro-3H-benzo[e]isoindol-3-one] | 1400 nM
O=C1c2cc(CN3CCC(c4ccncc4)CC3)c3ccccc3c2CN1C1CCCCC1O (stereo not shown) [Example 42, 2-(2-hydroxycyclohexyl)-5-[(4-(4-pyridinyl)piperidin-1-yl)methyl]-1,2-dihydro-3H-benzo[e]isoindol-3-one] | 240 nM
O=C1c2cc(CN3CCC(O)(c4ccncc4)CC3)c3ccccc3c2CN1C1CCCCC1O (stereo not shown) [Example 43, 2-(2-hydroxycyclohexyl)-5-[(4-hydroxy-4-pyridin-4-ylpiperidin-1-yl)methyl]-1,2-dihydro-3H-benzo[e]isoindol-3-one] | 830 nM
N#CC1(c2ccccn2)CCN(Cc2cc3c(c4ccccc24)CN([C@@H]2CCCC[C@H]2O)C3=O)CC1 [Example 46, 1-({2-[(1R,2R)-2-hydroxycyclohexyl]-3-oxo-2,3-dihydro-1H-benzo[e]isoindol-5-yl}methyl)-4-pyridin-2-ylpiperidine-4-carbonitrile] | 539 nM
N#CC1(c2ccccn2)CCN(Cc2cc3c(c4ccccc24)CN([C@@H]2CCCC[C@@H]2O)C3=O)CC1 [Example 47, 1-({2-[(1R,2S)-2-hydroxycyclohexyl]-3-oxo-2,3-dihydro-1H-benzo[e]isoindol-5-yl}methyl)-4-pyridin-2-ylpiperidine-4-carbonitrile] | 147 nM
N#CC1(c2cccc(Cl)n2)CCN(Cc2cc3c(c4ccccc24)CN([C@H]2CCCC[C@@H]2O)C3=O)CC1 [Example 48] | 53 nM
C=Cc1cccc(C2(C#N)CCN(Cc3cc4c(c5ccccc35)CN([C@H]3CCCC[C@@H]3O)C4=O)CC2)n1 [Example 49, 4-(6-ethenylpyridin-2-yl)-1-({2-[(1S,2S)-2-hydroxycyclohexyl]-3-oxo-2,3-dihydro-1H-benzo[e]isoindol-5-yl}methyl)piperidine-4-carbonitrile] | 114 nM
N#CC1(c2cnccn2)CCN(Cc2cc3c(c4ccccc24)CN([C@H]2CCCC[C@@H]2O)C3=O)CC1 [Example 50, 1-({2-[(1S,2S)-2-hydroxycyclohexyl]-3-oxo-2,3-dihydro-1H-benzo[e]isoindol-5-yl}methyl)-4-(pyrazin-2-yl)piperidine-4-carbonitrile] | 31 nM
N#CC1(c2ccncn2)CCN(Cc2cc3c(c4ccccc24)CN([C@H]2CCCC[C@@H]2O)C3=O)CC1 [Example 51, 1-({2-[(1S,2S)-2-hydroxycyclohexyl]-3-oxo-2,3-dihydro-1H-benzo[e]isoindol-5-yl}methyl)-4-(pyrimidin-4-yl)piperidine-4-carbonitrile] | 17 nM
N#CC1(c2cccnn2)CCN(Cc2cc3c(c4ccccc24)CN([C@H]2CCCC[C@@H]2O)C3=O)CC1 [Example 52, 1-({2-[(1S,2S)-2-hydroxycyclohexyl]-3-oxo-2,3-dihydro-1H-benzo[e]isoindol-5-yl}methyl)-4-(pyridazin-3-yl)piperidine-4-carbonitrile] | 27 nM
O=C1c2cc(CN3CCC(F)(c4ccccc4)CC3)c3ccccc3c2CN1[C@@H]1CCCC[C@H]1O [Example 53, 5-[(4-fluoro-4-phenylpiperidin-1-yl)methyl]-2-[(1R,2R)-2-hydroxycyclohexyl]-1,2-dihydro-3H-benzo[e]isoindol-3-one] | 248 nM
N#CC1(c2ccccn2)CCN(Cc2cc3c(c4ccccc24)CN(C2CCOCC2)C3=O)CC1 [Example 54, 1-{[3-oxo-2-(tetrahydro-2H-pyran-4-yl)-2,3-dihydro-1H-benzo[e]isoindol-5-yl]methyl}-4-pyridin-2-ylpiperidine-4-carbonitrile] | 279 nM
N#CC1(c2ccccn2)CCN(Cc2cc3c(c4ccccc24)CN(C2CCCOC2)C3=O)CC1 (stereo not shown) [Example 55, 1-{[3-oxo-2-(tetrahydro-2H-pyran-3-yl)-2,3-dihydro-1H-benzo[e]isoindol-5-yl]methyl}-4-pyridin-2-ylpiperidine-4-carbonitrile] | 1500 nM
N#CC1(c2ccccc2)CCN(Cc2cc3c(c4ccccc24)CN([C@H]2CCCC[C@@H]2O)C3=O)CC1 [Example 56, 1-({2-[(1S,2S)-2-hydroxycyclohexyl]-3-oxo-2,3-dihydro-1H-benzo[e]isoindol-5-yl}methyl)-4-phenylpiperidine-4-carbonitrile] | 83 nM
N#CC1(c2cccnc2)CCN(Cc2cc3c(c4ccccc24)CN([C@H]2CCCC[C@@H]2O)C3=O)CC1 [Example 57] | 22 nM
